Here are results for eight compounds from PubChem BioAssay AID250 (DTP/NCI, 2004).

The subject of this assay is BDF1 mice, L1210 leukemia sc, survival T/C. The assay can be described thus: NCI In Vivo Anticancer Drug Screen. Data for tumor model L1210 Leukemia (subcutaneous) in B6D2F1 (BDF1) mice. The following applies: endpoint: median survival time, higher = longer survival. In outline: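 Transplantable tumor-bearing mice; survival or tumor size recorded; result = T/C, treated vs vehicle control.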

Where [1] appears, read: dose: 14.0 mg/kg/injection, schedule: Q01DX Z (sc), vehicle: saline.
Where [2] appears, read: dose: 23.0 mg/kg/injection, schedule: Q01DX Z (sc), vehicle: saline.
Where [3] appears, read: dose: 39.0 mg/kg/injection, schedule: Q01DX Z (sc), vehicle: saline.
The mark [4] stands for this setting: dose: 108.0 mg/kg/injection, schedule: Q01DX Z (sc), vehicle: saline.
Setting [5] is: dose: 39.0 mg/kg/injection, schedule: Q01DX Z (sc), vehicle: methylcellulose (MC).
Where [6] appears, read: dose: 65.0 mg/kg/injection, schedule: Q01DX Z (sc), vehicle: methylcellulose (MC).
Where [7] appears, read: dose: 108.0 mg/kg/injection, schedule: Q01DX Z (sc), vehicle: methylcellulose (MC).
Setting [8] is: dose: 180.0 mg/kg/injection, schedule: Q01DX Z (sc), vehicle: methylcellulose (MC).
[9] abbreviates: dose: 300.0 mg/kg/injection, schedule: Q01DX Z (sc), vehicle: methylcellulose (MC).
The mark [10] stands for this setting: dose: 500.0 mg/kg/injection, schedule: Q01DX Z (sc), vehicle: methylcellulose (MC).

Structures are written as SMILES. Several values for one entry are separate records, joined by “and”; a condition that tells them apart may be missing. Equal entries are not always repeated. Inconclusive results and toxic doses are left out.

Turning to `C=CC(CO)N1CC1` (configuration not stated), the T/C (dose: 1.08 mg/kg/injection, schedule: Q01DX Z (sc), vehicle: saline) was 100 % of control; the T/C (dose: 1.8 mg/kg/injection, schedule: Q01DX Z (sc), vehicle: saline) was 100 % of control; the T/C (dose: 1.8 mg/kg/injection, schedule: Q02DX Z (sc), vehicle: saline) is 100 % of control; the T/C (dose: 3.0 mg/kg/injection, schedule: Q01DX Z (sc), vehicle: saline) is 100 % of control; the T/C (dose: 3.0 mg/kg/injection, schedule: Q02DX Z (sc), vehicle: saline) is 105 % of control; the T/C (dose: 5.0 mg/kg/injection, schedule: Q01DX Z (sc), vehicle: saline) is 90 % of control and 100 % of control. For the same compound, the T/C by setting is: (dose: 5.0 mg/kg/injection, schedule: Q02DX Z (sc), vehicle: saline) 100 % of control; (dose: 5.0 mg/kg/injection, schedule: Q## X Z (sc), vehicle: saline) 100 % of control; (dose: 7.8 mg/kg/injection, schedule: Q01DX Z (sc), vehicle: saline) 100 % of control; (dose: 8.4 mg/kg/injection, schedule: Q01DX001 (sc), vehicle: saline) 100 % of control; (dose: 8.4 mg/kg/injection, schedule: Q02DX Z (sc), vehicle: saline) 100 % of control; (dose: 8.4 mg/kg/injection, schedule: Q## X Z (sc), vehicle: saline) 100 % of control. Moreover, the T/C was 100 % of control (dose: 14.0 mg/kg/injection, schedule: Q01DX001 (sc), vehicle: saline); 100 % of control under setting [1]; 100 % of control (dose: 14.0 mg/kg/injection, schedule: Q02DX Z (sc), vehicle: saline); 100 % of control (dose: 14.0 mg/kg/injection, schedule: Q## X Z (sc), vehicle: saline); 100 % of control (dose: 23.0 mg/kg/injection, schedule: Q01DX001 (sc), vehicle: saline); 90 % of control and 110 % of control under setting [2]. For the same compound, the T/C (dose: 23.0 mg/kg/injection, schedule: Q02DX Z (sc), vehicle: saline) was 100 % of control; the T/C (dose: 23.0 mg/kg/injection, schedule: Q## X Z (sc), vehicle: saline) is 100 % of control; the T/C (dose: 36.0 mg/kg/injection, schedule: Q01DX Z (sc), vehicle: saline) was 105 % of control; the T/C (dose: 37.0 mg/kg/injection, schedule: Q02DX Z (sc), vehicle: saline) is 100 % of control; the T/C (dose: 39.0 mg/kg/injection, schedule: Q01DX001 (sc), vehicle: saline) was 110 % of control; the T/C under setting [3] is 95 % of control and 100 % of control. Further, the T/C (dose: 39.0 mg/kg/injection, schedule: Q## X Z (sc), vehicle: saline) is 100 % of control; the T/C (dose: 65.0 mg/kg/injection, schedule: Q01DX001 (sc), vehicle: saline) was 120 % of control; the T/C (dose: 65.0 mg/kg/injection, schedule: Q02DX Z (sc), vehicle: saline) was 100 % of control; the T/C (dose: 65.0 mg/kg/injection, schedule: Q## X Z (sc), vehicle: saline) was 120 % of control; the T/C (dose: 108.0 mg/kg/injection, schedule: Q01DX001 (sc), vehicle: saline) is 115 % of control; the T/C (dose: 108.0 mg/kg/injection, schedule: Q## X Z (sc), vehicle: saline) is 115 % of control.
Take `CCCOC1=C(N2CC2)C(=O)C(OCCC)=C(N2CC2)C1=O`: the T/C by setting is: (dose: 8.4 mg/kg/injection, schedule: Q01DX Z (sc), vehicle: saline) 110 % of control; under setting [1], 110 % of control; under setting [4], 115 % of control.
As for `CC(=O)OCC1OC(n2ccc(N)nc2=O)C(OC(C)=O)C1OC(C)=O` (configuration not stated), the T/C runs as follows: (dose: 20.0 mg/kg/injection, schedule: Q01DX Z (oral), vehicle: carboxymethylcellulose (CMC)) 220 % of control; (dose: 20.0 mg/kg/injection, schedule: Q01DX Z (sc), vehicle: carboxymethylcellulose (CMC)) 290 % of control; (dose: 40.0 mg/kg/injection, schedule: Q01DX Z (oral), vehicle: carboxymethylcellulose (CMC)) 255 % of control; (dose: 40.0 mg/kg/injection, schedule: Q01DX Z (sc), vehicle: carboxymethylcellulose (CMC)) 360 % of control; (dose: 80.0 mg/kg/injection, schedule: Q01DX Z (oral), vehicle: carboxymethylcellulose (CMC)) 270 % of control; (dose: 80.0 mg/kg/injection, schedule: Q01DX Z (sc), vehicle: carboxymethylcellulose (CMC)) 360 % of control. In addition, the T/C reads like this: (dose: 160.0 mg/kg/injection, schedule: Q01DX Z (oral), vehicle: carboxymethylcellulose (CMC)) 260 % of control; (dose: 160.0 mg/kg/injection, schedule: Q01DX Z (sc), vehicle: carboxymethylcellulose (CMC)) 225 % of control; (dose: 320.0 mg/kg/injection, schedule: Q01DX Z (oral), vehicle: carboxymethylcellulose (CMC)) 320 % of control.
For the compound `Clc1ncnc2c1ncn2C1CCCO1` (configuration not stated), the T/C by setting is: (dose: 8.4 mg/kg/injection, schedule: Q01DX Z (sc), vehicle: methylcellulose (MC)) 100 % of control; (dose: 14.0 mg/kg/injection, schedule: Q01DX Z (sc), vehicle: methylcellulose (MC)) 100 % of control; (dose: 23.0 mg/kg/injection, schedule: Q01DX Z (sc), vehicle: methylcellulose (MC)) 100 % of control; under setting [5], 100 % of control; under setting [6], 100 % of control; under setting [7], 100 % of control. In addition, the T/C reads like this: under setting [8], 100 % of control; under setting [9], 110 % of control; under setting [10], 100 % of control.
With `Nc1nc(N)c2nc(CNc3ccc(C(=O)NC(CCC(=O)O)C(=O)O)cc3)cnc2n1` (configuration not stated), the T/C was 100 % of control (dose: 0.04 mg/kg/injection, schedule: Q01DX Z (sc), vehicle: other); 100 % of control (dose: 0.05 mg/kg/injection, schedule: Q01DX Z (sc), vehicle: other); 100 % of control (dose: 0.08 mg/kg/injection, schedule: Q01DX Z (sc), vehicle: other); 120 % of control (dose: 0.4 mg/kg/injection, schedule: Q01DX Z (sc), vehicle: other); 120 % of control (dose: 0.6 mg/kg/injection, schedule: Q01DX Z (sc), vehicle: other); 120 % of control (dose: 0.89 mg/kg/injection, schedule: Q01DX Z (sc), vehicle: other). The T/C was 110 % of control (dose: 1.33 mg/kg/injection, schedule: Q01DX Z (sc), vehicle: other) and 120 % of control (dose: 2.0 mg/kg/injection, schedule: Q01DX Z (sc), vehicle: other).
On to `CC1(C)N=C(N)N=C(N)N1c1cccc(Br)c1`, for which the T/C under setting [2] was 105 % of control; the T/C under setting [5] was 112 % of control; the T/C under setting [3] was 100 % of control and 122 % of control; the T/C under setting [6] is 118 % of control; the T/C (dose: 65.0 mg/kg/injection, schedule: Q01DX Z (sc), vehicle: saline) is 110 % of control and 122 % of control; the T/C under setting [4] was 122 % of control.
For the compound `C[C@H](CN1CC(=O)NC(=O)C1)N1CC(=O)NC(=O)C1`, the T/C is 104 % of control (dose: 8.0 mg/kg/injection, schedule: Q01DX009 (ip), vehicle: water); 119 % of control (dose: 16.0 mg/kg/injection, schedule: Q01DX009 (ip), vehicle: water); 119 % of control and 124 % of control (dose: 32.0 mg/kg/injection, schedule: Q01DX009 (ip), vehicle: water); 118 % of control (dose: 256.0 mg/kg/injection, schedule: Q01DX009 (ip), vehicle: water); 113 % of control (dose: 512.0 mg/kg/injection, schedule: Q01DX009 (ip), vehicle: water).
In the case of `CCOC(=O)NP(=O)(N1CC1(C)C)N1CC1(C)C` (configuration not stated), the T/C under setting [6] is 91 % of control; the T/C under setting [7] is 100 % of control; the T/C (dose: 130.0 mg/kg/injection, schedule: Q01DX Z (sc), vehicle: methylcellulose (MC)) was 95 % of control; the T/C under setting [8] is 100 % of control; the T/C (dose: 216.0 mg/kg/injection, schedule: Q01DX Z (sc), vehicle: methylcellulose (MC)) was 100 % of control; the T/C under setting [9] is 100 % of control. For the same compound, the T/C under setting [10] is 100 % of control.
